Reference: ChEMBL document CHEMBL2429826, “Design, synthesis, and evaluation of prodrugs of ertapenem” (ACS Med Chem Lett, 2013)

Tests used:
[1] = AUC (0 to 8 hrs) in Sprague-Dawley rat at 1 mg/kg, iv; type: ADME, organism-based; design: time < 8 hr, dose 1 mg/kg, route intravenous; conditions: plasma
[2] = AUC (0 to 8 hrs) in Sprague-Dawley rat at 10 mg/kg, po; type: ADME, organism-based; design: time < 8 hr, dose 10 mg/kg, route oral; conditions: plasma
[3] = Apparent permeability of the compound in pig LLC-PK1 cells
[4] = AUC (0 to 8 hrs) in Sprague-Dawley rat at 10 mg/kg, ID administered as infusion; type: ADME, organism-based; design: time < 8 hr, dose 10 mg/kg, route intraduodenal; conditions: plasma
[5] = Oral bioavailability in Sprague-Dawley rat at 10 mg/kg; type: ADME, organism-based; conditions: in vivo
[6] = AUC (0 to 8 hrs) in Beagle dog at 1 mg/kg, iv; type: ADME, organism-based, Canis lupus familiaris; design: time < 8 hr, dose 1 mg/kg, route intravenous; conditions: plasma
[7] = test system: Rattus norvegicus; assay: AUC (0 to 8 hrs) in Sprague-Dawley rat assessed as 3-((2S,4S)-4-((4R,5S,6S)-2-(ethoxycarbonyl)-6-((R)-1-hydroxyethyl)-4-methyl-7-oxo-1-azabicyclo[3.2.0]hept-2-en-3-ylthio)pyrrolidine-2-carboxamido)benzoic acid at 10 mg/kg, ID administered as infusion; type: ADME, organism-based, Plasma; design: time < 8 hr, dose 10 mg/kg, route intraduodenal; conditions: in vivo, other, BLD = below limit of detection
[8] = test system: Canis familiaris; assay: AUC (0 to 8 hrs) in Beagle dog assessed as (4R,5S,6S)-3-((3S,5S)-5-(3-(ethoxycarbonyl)phenylcarbamoyl)pyrrolidin-3-ylthio)-6-((R)-1-hydroxyethyl)-4-methyl-7-oxo-1-azabicyclo[3.2.0]hept-2-ene-2-carboxylic acid at 10 mg/kg, ID administered as infusion; type: ADME, organism-based, Canis lupus familiaris, Plasma; design: time < 8 hr, dose 10 mg/kg, route intraduodenal; conditions: in vivo, other
[9] = Metabolic stability in dog plasma assessed as compound remaining at 50 uM after 60 mins by LC-MS/MS analysis; type: ADME, cell-free, Canis lupus familiaris; conditions: read-out: Stability
[10] = test system: Rattus norvegicus; assay: Bioavailability in Sprague-Dawley rat assessed as ertapenem at 10 mg/kg, ID administered as infusion; type: ADME, organism-based; conditions: in vivo, other
[11] = Metabolic stability in rat plasma assessed as compound remaining at 50 uM after 60 mins by LC-MS/MS analysis; type: ADME, cell-free; conditions: read-out: Stability
[12] = Metabolic stability in human plasma assessed as compound remaining at 50 uM after 60 mins by LC-MS/MS analysis; type: ADME, cell-free; conditions: read-out: Stability
[13] = test system: Canis familiaris; assay: AUC (0 to 8 hrs) in Beagle dog assessed as 3-((2S,4S)-4-((4R,5S,6S)-2-(ethoxycarbonyl)-6-((R)-1-hydroxyethyl)-4-methyl-7-oxo-1-azabicyclo[3.2.0]hept-2-en-3-ylthio)pyrrolidine-2-carboxamido)benzoic acid at 10 mg/kg, ID administered as infusion; type: ADME, organism-based, Canis lupus familiaris, Plasma; design: time < 8 hr, dose 10 mg/kg, route intraduodenal; conditions: in vivo, other
[14] = test system: Rattus norvegicus; assay: AUC (0 to 8 hrs) in Sprague-Dawley rat assessed as ertapenem at 10 mg/kg, ID administered as infusion; type: ADME, organism-based, Plasma; design: time < 8 hr, dose 10 mg/kg, route intraduodenal; conditions: in vivo, other
[15] = test system: Canis familiaris; assay: AUC (0 to 8 hrs) in Beagle dog assessed as ertapenem at 10 mg/kg, ID administered as infusion; type: ADME, organism-based, Canis lupus familiaris, Plasma; design: time < 8 hr, dose 10 mg/kg, route intraduodenal; conditions: in vivo, other
[16] = test system: Rattus norvegicus; assay: AUC (0 to 8 hrs) in Sprague-Dawley rat assessed as (4R,5S,6S)-3-((3S,5S)-5-(3-(ethoxycarbonyl)phenylcarbamoyl)pyrrolidin-3-ylthio)-6-((R)-1-hydroxyethyl)-4-methyl-7-oxo-1-azabicyclo[3.2.0]hept-2-ene-2-carboxylic acid at 10 mg/kg, ID administered as infusion; type: ADME, organism-based, Plasma; design: time < 8 hr, dose 10 mg/kg, route intraduodenal; conditions: in vivo, other, BLD = below limit of detection
[17] = test system: Canis familiaris; assay: Bioavailability in Beagle dog assessed as ertapenem at 10 mg/kg, ID administered as infusion; type: ADME, organism-based, Canis lupus familiaris; conditions: in vivo, other
[18] = Metabolic stability in monkey plasma assessed as compound remaining at 50 uM after 60 mins by LC-MS/MS analysis; type: ADME, cell-free, Macaca mulatta; conditions: rhesus monkey, read-out: Stability
[19] = test system: Rattus norvegicus; assay: AUC (0 to 8 hrs) in Sprague-Dawley rat assessed as ertapenem at 4.4 mg/kg, ID administered as infusion; type: ADME, organism-based, Plasma; design: time < 8 hr, dose 4.4 mg/kg, route intraduodenal; conditions: in vivo, other
[20] = test system: Rattus norvegicus; assay: AUC (0 to 8 hrs) in Sprague-Dawley rat assessed as 3-((2S,4S)-4-((4R,5S,6S)-2-(ethoxycarbonyl)-6-((R)-1-hydroxyethyl)-4-methyl-7-oxo-1-azabicyclo[3.2.0]hept-2-en-3-ylthio)pyrrolidine-2-carboxamido)benzoic acid at 4.4 mg/kg, ID administered as infusion; type: ADME, organism-based, Plasma; design: time < 8 hr, dose 4.4 mg/kg, route intraduodenal; conditions: in vivo, other
[21] = test system: Rattus norvegicus; assay: AUC (0 to 8 hrs) in Sprague-Dawley rat assessed as (4R,5S,6S)-3-((3S,5S)-5-(3-(ethoxycarbonyl)phenylcarbamoyl)pyrrolidin-3-ylthio)-6-((R)-1-hydroxyethyl)-4-methyl-7-oxo-1-azabicyclo[3.2.0]hept-2-ene-2-carboxylic acid at 4.4 mg/kg, ID administered as infusion; type: ADME, organism-based, Plasma; design: time < 8 hr, dose 4.4 mg/kg, route intraduodenal; conditions: in vivo, other
[22] = test system: Rattus norvegicus; assay: Bioavailability in Sprague-Dawley rat assessed as ertapenem at 4.4 mg/kg, ID administered as infusion; type: ADME, organism-based; conditions: in vivo, other
[23] = test system: Hepatocyte; assay: Drug metabolism in rat hepatocytes assessed as tebipenem level after 15 mins; type: ADME, cell-based; conditions: 0.25 h
[24] = test system: Liver microsomes; assay: Drug metabolism in rat liver microsomes assessed as tebipenem level after 15 mins; type: ADME, Microsome; conditions: 0.25 h
[25] = test system: Liver microsomes; assay: Drug metabolism in human liver microsomes assessed as tebipenem level after 15 mins; type: ADME, Microsome; conditions: 0.25 h
[26] = Drug metabolism in monkey liver microsomes assessed as tebipenem level after 15 mins; type: ADME, Macaca mulatta, Microsome; conditions: rhesus monkey, 0.25 h
[27] = Drug metabolism in dog liver microsomes assessed as tebipenem level after 15 mins; type: ADME, Canis lupus familiaris, Microsome; conditions: 0.25 h
[28] = Drug metabolism in monkey hepatocytes assessed as tebipenem level after 15 mins; type: ADME, cell-based, Macaca mulatta, Hepatocyte; conditions: rhesus monkey, 0.25 h
[29] = test system: Hepatocyte; assay: Drug metabolism in human hepatocytes assessed as tebipenem level after 15 mins; type: ADME, cell-based; conditions: 0.25 h
[30] = Drug metabolism in dog hepatocytes assessed as tebipenem level after 15 mins; type: ADME, cell-based, Canis lupus familiaris, Hepatocyte; conditions: 0.25 h

Row | SMILES | Papp [3] [×10⁻⁶ cm/s] | remaining at 1 h, 50 µM [9] [%] | remaining at 1 h, 50 µM [11] [%] | remaining at 1 h, 50 µM [12] [%] | AUC [15] [µM·h] | F [17] [%] | remaining at 1 h, 50 µM [18] [%] | other results
1 | C[C@@H](O)[C@H]1C(=O)N2C(C(=O)O)=C(S[C@@H]3CN[C@H](C(=O)Nc4cccc(C(=O)O)c4)C3)[C@H](C)[C@H]12 | 0.5 |  |  |  |  |  |  | AUC(0-t) at 8 h [1]: 7.84 µM·h; AUC(0-t) at 8 h [2]: 0.39 µM·h; AUC(0-t) at 8 h [4]: 0.48 µM·h; bioavailability [5]: 0.53%; AUC(0-t) at 8 h [6]: 8.9 µM·h
2 | C[C@@H](O)[C@H]1C(=O)N2C(C(=O)OCOC(=O)C(C)(C)C)=C(S[C@@H]3CN[C@H](C(=O)Nc4cccc(C(=O)OCOC(=O)C(C)(C)C)c4)C3)[C@H](C)[C@H]12 |  | 37 | 2 | 36 | 1.81 | 3 |  | AUC [7]: BLD; AUC ([8]; BLD = below limit of detection): BLD; F [10]: 0.37%; AUC [13]: 0.04 µM·h; AUC [14]: 0.2 µM·h; AUC [16]: BLD
3 | Cc1oc(=O)oc1COC(=O)C1=C(S[C@@H]2CN[C@H](C(=O)Nc3cccc(C(=O)OCc4oc(=O)oc4C)c3)C2)[C@H](C)[C@@H]2[C@@H]([C@@H](C)O)C(=O)N12 |  | 3 | 1 | 1 |  |  | 2 | F [10]: 0.77%; AUC [14]: 0.3 µM·h
4 | CCOC(=O)C1=C(S[C@@H]2CN[C@H](C(=O)Nc3cccc(C(=O)OCC)c3)C2)[C@H](C)[C@@H]2[C@@H]([C@@H](C)O)C(=O)N12 | 13 | 75 | 0 | 5 | 14.3 | 18.1 | 77 | AUC [19]: 1.54 µM·h; AUC [20]: 0.07 µM·h; AUC [21]: 0.42 µM·h; AUC [8]: 3.34 µM·h; F [22]: 4.98%; AUC [13]: 2.17 µM·h
5 | C[C@@H](O)[C@H]1C(=O)N2C3=C(S[C@@H]4CN[C@@H](C4)C(=O)Nc4cccc(c4)C(=O)OCCCOC3=O)[C@H](C)[C@H]12 |  | 79 | 0 | 17 | 0.44 | 0.53 | 49 | 
6 | C[C@@H](O)[C@H]1C(=O)N2C(C(=O)OCOC(=O)C(C)(C)C)=C(SC3CN(C4=NCCS4)C3)[C@H](C)[C@H]12 [TEBIPENEM PIVOXIL] |  | 25 | 0 | 0 |  |  | 0 | Drug metabolism [23]: Active; Drug metabolism [24]: Active; Drug metabolism [25]: Active; Drug metabolism [26]: Active; Drug metabolism [27]: Active; Drug metabolism [28]: Active; Drug metabolism [29]: Active; Drug metabolism [30]: Active
7 | C[C@@H](O)[C@H]1C(=O)N2C(C(=O)O)=C(SC3CN(C4=NCCS4)C3)[C@H](C)[C@H]12 [TEBIPENEM] | 0.7 |  |  |  |  |  |  | 
